# Reference: US20030130264A1 (priority 2001, published 2003)
# Test system: recombinant human cytomegalovirus (HCMV)
# Test: microbe, parasite or virus in culture
# Assay type: cell-based
# Settings: Human betaherpesvirus 5, HFF
# Source text: For the assessment of activity against human CMV, a method was used which is similar to that described in Kohler, et al. (1994) J. Virol. 68:6589-6597. Briefly, a recombinant human cytomegalovirus (HCMV) was made containing a marker gene (luciferase) under the control of the promoter for the late 28 kDa viral structural phosphoprotein pp28. Human foreskin fibroblast (HFF) cells were infected with the recombinant HCMV virus (moi (multiplicity of infection) 5), placed into 96-well plates, and cultured under standard cell-culture conditions. […] The level of luciferase expression was measured 24 h after treatment with the test compounds. […] As an additional control, the cytotoxicity of test compounds on untreated HFF cells was also evaluated in cultured cell growth experiments.
row,Compound,IC50 [nM]
1,CCC(Nc1nc(C)c([N+](=O)[O-])c(-n2ccnc2)n1)c1ccccc1 (centres unmarked) [2-(1-phenyl-1-propylamino)-4-(imidazol-1-yl)-6-methyl-5-nitropyrimidine],> 500
2,Cc1nc(NC2Cc3ccccc3C2)nc(-n2ccnc2C)c1[N+](=O)[O-] [2-(2-indanamino)-4-(2-methylimidazoyl)-6-methyl-5-nitropyrimidine],> 500
3,Cc1nc(NC2Cc3ccccc3C2)nc(-n2ccnc2)c1[N+](=O)[O-] [2-(2-indanamino)-4-imidazolyl-6-methyl-5-nitropyrimidine],> 500
4,"CCc1nccn1-c1nc(NC2CCc3c(F)cc(F)cc32)nc(C)c1[N+](=O)[O-] (centres unmarked) [2-(4,6-difluoro-1-indanamino)-4-(2-ethylimidazolyl)-6-methyl-5-nitropyrimidine]",100 to 500
5,"Cc1nc(NC2CCc3c(F)cc(F)cc32)nc(-n2ccnc2C)c1[N+](=O)[O-] (centres unmarked) [2-(4,6-difluoro-1-indanamino)-4-(2-methylimidazolyl)-6-methyl-5-nitropyrimidine]",100 to 500
6,"Cc1nc(NC2CCc3c(F)cc(F)cc32)nc(-n2ccnc2)c1[N+](=O)[O-] (centres unmarked) [2-(4,6-difluoro-1-indanamino)-4-imidazolyl-6-methyl-5-nitropyrimidine]",100 to 500
7,Cc1nc(NCc2ccc(C(F)(F)F)cc2)nc(-n2ccnc2C)c1[N+](=O)[O-] [2-(4-trifluoromethylbenzylamino)-4-(2-methylimidazol-1-yl)-6-methyl-5-nitropyrimidine],100 to 500
8,CCCCN(Cc1ccccc1)c1nc(C)c([N+](=O)[O-])c(-n2ccnc2C)n1 [Compound m],2000
9,Cc1nc(N(Cc2ccccc2)Cc2ccccc2)nc(-n2ccnc2C)c1[N+](=O)[O-] [Compound o],2000
10,Cc1nc(N2CCC(C)CC2)nc(-n2ccnc2C)c1[N+](=O)[O-] [Compound p],300
11,CCCCN(CC1CC1)c1nc(C)c([N+](=O)[O-])c(-n2ccnc2C)n1 [Compound q],3000
12,CCc1nc(N(C)c2ccccc2)nc(-n2ccnc2C)c1[N+](=O)[O-] [c],100
13,Cc1nc(-n2ccnc2C)nc(N(C)Cc2ccccc2)c1[N+](=O)[O-] [f],6000
14,Cc1nc(N(C)c2ccc(Cl)cc2)nc(-n2ccnc2C)c1[N+](=O)[O-] [g],800
15,Cc1nccn1-c1nc(N(C)c2ccccc2)nc(C(C)C)c1[N+](=O)[O-] [h],300
16,CCN(CC)c1nc(C)c([N+](=O)[O-])c(-n2ccnc2C)n1 [k],1000
17,Cc1cn(-c2nc(N(C)c3ccccc3)nc(C)c2[N+](=O)[O-])cn1 [t],10000
18,"CCCOc1nc(C)c([N+](=O)[O-])c(-n2ccnc2C)n1 [x, 2-(propyloxy)-4-(2-methylimidazol-1yl)-6-methyl-5-nitropyrimidine]",> 500

# Test system: not given
# Test: not given
# Settings: not given
row,Compound,melting point [°C]
1,Cc1nc(NC2Cc3ccccc3C2)nc(-n2ccnc2C)c1[N+](=O)[O-].Cl,184 to 185
2,CC[C@H]1CCCCC1Nc1nc(C)c([N+](=O)[O-])c(-n2ccnc2)n1 (some centres unmarked),123 to 124
